Measurements published in PubChem BioAssay (NCI).
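Interpolation was linear, between the two tested concentrations surrounding the appropriate level; five concentrations were tested over 48 hours in 96-well plates. TGI: total growth inhibition.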

Columns and labels:
Experiment in all cases: DTP human tumour cell line panel, 48 h
HCT-116 colon = tested on: HCT-116 colon
EKVX NSCLC = tested on: EKVX NSCLC
HCC-2998 colon = tested on: HCC-2998 colon
SK-MEL-2 melanoma = tested on: SK-MEL-2 melanoma
SNB-75 CNS = tested on: SNB-75 CNS
DMS 114 small cell lung = tested on: DMS 114 small cell lung
KM12 colon = tested on: KM12 colon
OVCAR-4 ovarian = tested on: OVCAR-4 ovarian
SK-MEL-5 melanoma = tested on: SK-MEL-5 melanoma
SK-OV-3 ovarian = tested on: SK-OV-3 ovarian
SN12C renal = tested on: SN12C renal
DLD-1 colon = tested on: DLD-1 colon
COLO 205 colon = tested on: COLO 205 colon
HT29 colon = tested on: HT29 colon
UACC-62 melanoma = tested on: UACC-62 melanoma
CCRF-CEM leukemia = tested on: CCRF-CEM leukemia
NCI-H522 lung = tested on: NCI-H522 lung
IGROV1 ovarian = tested on: IGROV1 ovarian
RPMI-8226 leukemia = tested on: RPMI-8226 leukemia
M19-MEL melanoma = tested on: M19-MEL melanoma
DMS 273 small cell lung = tested on: DMS 273 small cell lung
LOX IMVI melanoma = tested on: LOX IMVI melanoma
SNB-78 CNS = tested on: SNB-78 CNS
OVCAR-8 ovarian = tested on: OVCAR-8 ovarian
SR leukemia = tested on: SR leukemia
M14 melanoma = tested on: M14 melanoma
SF-295 CNS = tested on: SF-295 CNS
HCT-15 colon = tested on: HCT-15 colon
RXF 393 renal = tested on: RXF 393 renal
HOP-18 NSCLC = tested on: HOP-18 NSCLC
XF 498 CNS = tested on: XF 498 CNS
786-0 renal = tested on: 786-0 renal
NCI-H460 lung = tested on: NCI-H460 lung
SNB-19 CNS = tested on: SNB-19 CNS
KM20L2 colon = tested on: KM20L2 colon
CAKI-1 renal = tested on: CAKI-1 renal
MOLT-4 leukemia = tested on: MOLT-4 leukemia
UACC-257 melanoma = tested on: UACC-257 melanoma
HL-60(TB) leukemia = tested on: HL-60(TB) leukemia
SF-268 CNS = tested on: SF-268 CNS
SW-620 colon = tested on: SW-620 colon
UO-31 renal = tested on: UO-31 renal
NCI-H23 lung = tested on: NCI-H23 lung
MALME-3M melanoma = tested on: MALME-3M melanoma
OVCAR-5 ovarian = tested on: OVCAR-5 ovarian
SK-MEL-28 melanoma = tested on: SK-MEL-28 melanoma
U251 CNS = tested on: U251 CNS
A549 NSCLC = tested on: A549 NSCLC
ACHN renal = tested on: ACHN renal
NCI-H226 lung = tested on: NCI-H226 lung
K-562 leukemia = tested on: K-562 leukemia
HOP-62 NSCLC = tested on: HOP-62 NSCLC
OVCAR-3 ovarian = tested on: OVCAR-3 ovarian
TK-10 renal = tested on: TK-10 renal
SF-539 CNS = tested on: SF-539 CNS
HOP-92 NSCLC = tested on: HOP-92 NSCLC
LXFL 529 NSCLC = tested on: LXFL 529 NSCLC
A498 renal = tested on: A498 renal
RXF-631 renal = tested on: RXF-631 renal

Measured: TGI

COc1ccc(C2C(Cl)C(=O)N2NC(=O)Cc2ccccc2)cc1OC (stereo not given)
not listed: SF-539 CNS | HOP-92 NSCLC | LXFL 529 NSCLC | A498 renal | RXF-631 renal
> 100 µM: all other assays above

O=C1C[C@H](c2ccc(O)c(O)c2)Oc2cc(O)cc(O)c21
not listed: XF 498 CNS
> 100 µM: all other assays above

COc1ccc2c(c1)OCCC1=C2SCC2(C)CCN=C12 (stereo not given)
not listed: EKVX NSCLC | HCC-2998 colon | SK-MEL-2 melanoma | M19-MEL melanoma | SR leukemia | HCT-15 colon | CAKI-1 renal | UACC-257 melanoma | UO-31 renal | MALME-3M melanoma | OVCAR-5 ovarian | ACHN renal | HOP-92 NSCLC | A498 renal | RXF-631 renal
> 100 µM: all other assays above

C#CCN(C)C(=O)N(CC#C)N=O
not listed: HCC-2998 colon | SR leukemia | XF 498 CNS | CAKI-1 renal | NCI-H226 lung
> 100 µM: all other assays above
